# Assay results: patent US7229997B2, “Compounds and their use” (Biovitrum AB, priority 2002, dated 2007)
# Read-outs that look alike come from different tables or passages of the source.
# Biological target: T1, human 5-HT2c receptor (Homo sapiens, UniProt P28335)
# T1 construct: expressed in transfected cells
# T1 sequence (P28335 33-458): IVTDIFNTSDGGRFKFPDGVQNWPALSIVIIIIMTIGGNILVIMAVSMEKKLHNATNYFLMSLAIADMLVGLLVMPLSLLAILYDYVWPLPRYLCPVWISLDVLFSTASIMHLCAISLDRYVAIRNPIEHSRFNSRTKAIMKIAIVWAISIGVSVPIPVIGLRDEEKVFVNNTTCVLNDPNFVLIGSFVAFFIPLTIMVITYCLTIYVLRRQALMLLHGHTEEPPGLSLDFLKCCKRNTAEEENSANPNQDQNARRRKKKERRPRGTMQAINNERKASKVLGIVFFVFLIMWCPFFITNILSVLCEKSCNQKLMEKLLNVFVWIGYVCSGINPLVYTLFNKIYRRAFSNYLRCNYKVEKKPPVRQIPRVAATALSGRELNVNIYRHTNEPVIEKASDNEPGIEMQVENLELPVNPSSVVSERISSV
# Assay: 5-HT2c receptor affinity assay (displacement of 3H-labelled 5-HT, Scintillation Proximity Assay)
# Format: binding
# Method: The 5-HT2c receptor affinity of compounds in the Examples was determined in competition experiments, where the ability of each compound in serial dilution to displace ^3H-labelledlabeled 5-HT, bound to membranes prepared from a transfected HEK293 cell line stably expressing the human 5-HT2c receptor protein, was monitored by Scintillation Proximity Assay technology. Non-specific binding was defined using 5 μM mianserin.
# [1] = membranes from transfected HEK293 cells expressing human 5-HT2c receptor, 3H-5-HT radioligand, read-out: 5-HT2C receptor Affinity Ki
Structure (SMILES),Ki,Ki [1]
"FC(F)(F)c1ccc(N2CCNCC2)nc1SCc1ccccc1Cl [Example 15, 1-[6-(2-Chloro-benzylsulfanyl)-5-trifluoromethyl-pyridin-2-yl]-piperazine, acetate]",1 nM,–
"CCSc1nc(N2CCNCC2)ccc1C(F)(F)F [Example 17, 1-(6-Ethylsulfanyl-5-trifluoromethyl-pyridin-2-yl)-piperazine, acetate]",15 nM,–
"FC(F)(F)c1ccc(N2CCNCC2)nc1OCCOc1cccc2cccnc12 [Example 21, 8-[2-(6-Piperazin-1-yl-3-trifluoromethyl-pyridin-2-yloxy)-ethoxyl-quinoline, acetate]",–,246 nM
"FC(F)(F)c1ccc(N2CCNCC2)nc1OCc1ccco1 [Example 25, 1-[6-(Furan-2-ylmethoxy)-5-trifluoromethyl-pyridin-2-yl]-piperazine, acetate]",14 nM,–
"CCSc1nc(N2CCNC[C@H]2C)ccc1C(F)(F)F [Example 30, 1-(6-Ethylsulfanyl-5-trifluoromethyl-pyridin-2-yl)-2-(R)-methyl-piperazine, acetate]",24 nM,–
"COc1ccc(F)cc1COc1nc(N2CCNCC2)ccc1C(F)(F)F [Example 36, 1-[6-(5-Fluoro-2-methoxy-benzyloxy)-5-trifluoromethyl-pyridin-2-yl]-piperazine, acetate]",5 nM,–
"C[C@H]1CN(c2ccc(C(F)(F)F)c(SCc3ccccc3Cl)n2)CCN1 [Example 38, 1-[6-(2-Chloro-benzylsulfanyl)-5-trifluoromethyl-pyridin-2-yl]-3-(S)-methyl-piperazine, acetate]",–,6 nM
